Measured values published in PubChem BioAssay (NCI).
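Here, GI50 denotes the concentration required for 50% inhibition of growth. TGI: total growth inhibition.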

What was measured:
Experiment in all cases: NCI tumour cell line growth inhibition, 384-well format
[1] = system: HCT-116 colon
[2] = system: NCI-H460 NSCLC
[3] = system: PC-3 prostate
[4] = system: IGROV1 ovarian
[5] = system: NCI-H226 lung
[6] = system: HCC-2998 colon
[7] = system: SN12C renal
[8] = system: KM12 colon
[9] = system: K-562 leukemia
[10] = system: A549 NSCLC
[11] = system: HS 578T breast
[12] = system: HCT-15 colon
[13] = system: EKVX NSCLC
[14] = system: SK-MEL-5 melanoma
[15] = system: SK-OV-3 ovarian
[16] = system: SF-539 CNS
[17] = system: UO-31 renal
[18] = system: T-47D breast
[19] = system: M14 melanoma
[20] = system: CCRF-CEM leukemia
[21] = system: MCF7 breast
[22] = system: OVCAR-5 ovarian
[23] = system: NCI/ADR-RES ovarian
[24] = system: SW-620 colon
[25] = system: BT-549 breast
[26] = system: MDA-MB-435 melanoma
[27] = system: UACC-62 melanoma
[28] = system: TK-10 renal
[29] = system: NCI-H522 lung
[30] = system: OVCAR-3 ovarian
[31] = system: SNB-75 CNS
[32] = system: RPMI-8226 leukemia
[33] = system: ACHN renal
[34] = system: SK-MEL-2 melanoma
[35] = system: COLO 205 colon
[36] = system: SF-268 CNS
[37] = system: NCI-H23 lung
[38] = system: U251 glioblastoma
[39] = system: 786-0 renal
[40] = system: SNB-19 CNS
[41] = system: OVCAR-4 ovarian
[42] = system: HOP-92 NSCLC
[43] = system: MDA-MB-468 breast
[44] = system: HOP-62 NSCLC
[45] = system: UACC-257 melanoma
[46] = system: MOLT-4 leukemia
[47] = system: SK-MEL-28 melanoma

## C[C@H]1C[C@@H](n2c(Nc3ccc(OC(F)(F)F)cc3)nc3cc(CCC(=O)O)ccc32)CC(C)(C)C1
[1]
  GI50: 12.2 µM
  TGI: 24.9 µM
[2]
  GI50: 13.6 µM
  TGI: 26.8 µM
[3]
  GI50: 13.7 µM
  TGI: 26.8 µM
[4]
  GI50: 12.7 µM
  TGI: 25.4 µM
[5]
  GI50: 16.2 µM
  TGI: 29.8 µM
[6]
  GI50: 14.1 µM
  TGI: 27.1 µM
[7]
  GI50: 15.7 µM
  TGI: 29.2 µM
[8]
  GI50: 13.8 µM
  TGI: 26.9 µM
[9]
  GI50: 12.2 µM
  TGI: 24.9 µM
[10]
  GI50: 7.54 µM
  TGI: 20.2 µM
[11]
  GI50: 11 µM
  TGI: 23.1 µM
[12]
  GI50: 13.9 µM
  TGI: 27.1 µM
[13]
  GI50: 14.6 µM
  TGI: 27.9 µM
[14]
  GI50: 14.2 µM
  TGI: 27.3 µM
[15]
  GI50: 18.2 µM
  TGI: 32.2 µM
[16]
  GI50: 14.5 µM
  TGI: 27.7 µM
[17]
  GI50: 11.9 µM
  TGI: 24.4 µM
[18]
  GI50: 13.5 µM
  TGI: 27.6 µM
[19]
  GI50: 15.4 µM
  TGI: 28.9 µM
[20]
  GI50: 11.9 µM
  TGI: 24.3 µM
[21]
  TGI: 19.2 µM
[22]
  GI50: 17.2 µM
  TGI: 31.1 µM
[23]
  GI50: 16.1 µM
  TGI: 29.8 µM
[24]
  GI50: 14.6 µM
  TGI: 27.9 µM
[25]
  GI50: 13 µM
  TGI: 25.8 µM
[26]
  GI50: 14.9 µM
  TGI: 28.3 µM
[27]
  GI50: 15.2 µM
  TGI: 28.6 µM
[28]
  GI50: 16 µM
  TGI: 29.7 µM
[29]
  GI50: 16.5 µM
  TGI: 30.1 µM
[30]
  GI50: 9.71 µM
  TGI: 22.5 µM
[31]
  GI50: 20.3 µM
  TGI: 34.6 µM
[32]
  GI50: 4.46 µM
  TGI: 11.4 µM
[33]
  GI50: 15.5 µM
  TGI: 30.8 µM
[34]
  GI50: 17.9 µM
  TGI: 31.8 µM
[35]
  GI50: 17.5 µM
  TGI: 31.5 µM
[36]
  GI50: 13 µM
  TGI: 25.8 µM
[37]
  GI50: 14.6 µM
  TGI: 27.9 µM
[38]
  GI50: 9.69 µM
  TGI: 22.5 µM
[39]
  GI50: 13.8 µM
  TGI: 26.8 µM
[40]
  GI50: 12.5 µM
  TGI: 25.1 µM
[41]
  GI50: 13.1 µM
  TGI: 25.9 µM
[42]
  GI50: 16 µM
  TGI: 29.5 µM
[43]
  GI50: 13.7 µM
  TGI: 28.7 µM
[44]
  GI50: 12.2 µM
  TGI: 24.7 µM
[45]
  GI50: 17.8 µM
  TGI: 31.8 µM
[46]
  GI50: 5.49 µM
  TGI: 17.4 µM
[47]
  GI50: 14.3 µM
  TGI: 27.5 µM
